Positions of bridges follow the written chain, without caps; N, C: chain ends. Non-standard residues stand in square brackets, D forms with d. Residues, ends and D or L forms follow the SMILES beside them. Cha = N[C@@H](CC1CCCCC1)C(=O)O; NMeNva = CCC[C@H](NC)C(=O)O; NMeAbu = CC[C@H](NC)C(=O)O; NMeC = CN[C@@H](CS)C(=O)O; NMeA = CN[C@@H](C)C(=O)O; Nva = CCC[C@H](N)C(=O)O; Abu = CC[C@H](N)C(=O)O; NPrGly = CCCNCC(=O)O; NEtG = CCNCC(=O)O
Tests used:
[1] = PAMPA, 10 µM, pH 7.4
Protocol: (§1) Passive permeabilities of the 36 compounds were measured in multiplex as mixtures of six compounds each using the parallel artificial membrane permeability assay (PAMPA).[44]−[46]
(§2) Protocol is identical for both mixture and pure compound analysis.
(§3) Two of the following: Carbamazepine (CBZ), propranolol (Prop), and 1NMe35 were
(§4) included as internal standards and prepared as DMSO stocks at a concentration of 2 000 µM.
(§5) assay was carried out with a 96-well donor plate with 0.45 μ hydrophobic Immobilon-P membrane supports
(§6) (Millipore MAIPNTR10) and a 96-well Teflon acceptor plate (Millipore MSSACCEPTOR).
protocol then proceeded as follows:
(§7) Donor well solutions were prepared to a volume of 1 000 µL with the analytes as a solution in 1X
(§8) PBS pH 7.4 and 5% DMSO. To a 3 mL Eppendorf tube was added 950 µL of 1X PBS pH 7.4, 40
(§9) The solutions were vortexed and set aside.
Analyte – 10 µM per compound
(§10) A 1% solution of soy lecithin in dodecane was freshly prepared in a 3 mL Eppendorf tube and
(§11) sonicated (5 min) to ensure full dissolution of the lecithin. The donor membrane plate was turned
(§12) upside down and bottom of the membranes exposed. 5 µL of the 1% soy lecithin solution in
(§13) dodecane was then placed on the bottom of the membrane, allowing the drop to spread across the
(§14) full area of the membrane. Any membranes with visible damage were not used in the assay.
(§15) membranes were allowed to equilibrate for 5 min before loading.
(§16) Each well within the Teflon block acceptor plate that was to be used in the assay was then loaded
(§17) with 300 µL of 1X PBS pH 7.4 and 5% DMSO.
(§18) Working without break, 150 µL of each donor well solution was transferred from the to the 96-well
(§19) donor plate. Each mixture of interest was r un in quadruplicate, using a new well for each replicate.
(§20) As soon as the 96-well donor plate was finished being loaded, it was gently placed into the 96-well
(§21) Teflon acceptor plate, taking care not to trap any air bubbles beneath the membrane.
(§22) The donor/acceptor plates were covered gently with the lid to minimize evaporation and transferred
(§23) gently as a system to a sealed chamber and left to sit overnight at room temperature. The chamber
(§24) was kept from drying by placing a wet paper towel within to prevent evaporation.
(§25) After ~19-20 hours the donor plate was removed from the acceptor plate.
(§26) 50 µL of each well (donor and acceptor) were transferred to a 96 -well plate and diluted with 50 µL
(§27) of methanol prior to heat sealing and quantification by UPLC -MS.

in vitro [2] = conditions: PAMPA
Protocol: as §1, §2, §3, §4, §5, §6
protocol then proceeded as follows:
as §7, §8, §9
Analyte – 10 µM per compound
as §10, §11, §12, §13, §14, §15, §16, §17, §18, §19, §20, §21, §22, §23, §24, §25, §26, §27

in vitro [3] = conditions: dog, MDCK, pH 7.4
Protocol: We also tested the permeabilities of the pure compounds in a cell-based trans-well permeability assay using Mdr1 knockout Madin–Darby canine kidney (MDCK) cells which minimize the endogenous efflux activity of traditional MDCK cells.[54]
The gMDCKI cell line (overexpressed cell line of Madin -Darby Canine Kidney which acquired from the NIH)
maintained in DMEM medium supplemented with 1% pen -strep, 5 µg/mL Plasmocin, and 10% FBS under
standard culture conditions (37 °C, 95% humidity, and 5% CO2), were seeded (0.75 x 10^5 cells) on the HTS
Transwell-96 permeable support (Corning) to form a confluent monolayer for two days.
All experimental steps were fully automated on Hamilton Vantage. Compound stock solution (1 mM in
DMSO) was diluted (10 μM final in HBSS, pH 7.4) with Lucifer Yellow as leakage indicator (20 μM). After
washing with HBSS buffer, the solution of test compounds was added to the apical side of the monolayers.
The plate was incubated for 3 h at 37 °C. T0 samples (10 µL of the 10 µM compounds diluted solution with
LY) were transferred to a 96-well plate, and then 40 µL of HBSS was added. After 3 hours, 50 μL basolateral
samples in the receiving plate were transferred to a fresh 96-well plate and added 100 μL of IS solution
(Propranolol). LY were read by plate reader and the samples were analyzed by LC/MS/MS.
The apparent permeability coefficient (Papp) is calculated from the permeation rate and compound
concentration at t=0h and t=3h. Where:
dQ/dt: amount of product present in the basal (A-B) or apical (B-A) compartment as a function of time
A: area of transwell (cm2).
C0: initial concentration of product applied in the apical (A -B) or basal (B-A) compartment (nmol/ml).

Structure (SMILES) | %R_avg [1] [%] | Papp at 10 µM (in vitro [2]; pH 7.4, Pe_avg) [×10⁻⁶ cm/s] | also measured
CCCN1CC(=O)N[C@@H](CC(C)C)C(=O)N(C)[C@@H](C)C(=O)N[C@@H](CC(C)C)C(=O)N(C)[C@H](C(=O)OCC)CSCC(=O)N[C@@H](CC(C)C)C(=O)N(C)[C@@H](C)C(=O)N[C@@H](CC(C)C)C(=O)N2CCC[C@@H]2C1=O [LA08, O=C(N(C)[C@H](C(OCC)=O)CSCC(N[C@H](C(N(C)[C@@H](C)C(N[C@@H](CC(C)C)C(N1[C@H](CCC1)C(N(CCC)CC(N[C@H]2CC(C)C)=O)=O)=O)=O)=O)CC(C)C)=O)[C@H](CC(C)C)NC([C@H](C)N(C)C2=O)=O] ({CH2CO}-L[NMeA]L[dP][NPrGly]L[NMeA]L[NMeC]-OEt; thioether N-9) | 4.8 | 0.794 | log(Pe)_avg [1]: -6.100
CCC[C@@H]1NC(=O)CN(CC)C(=O)[C@H](CC(C)C)NC(=O)CSC[C@@H](C(=O)OCC)N(C)C(=O)[C@H](CC(C)C)NC(=O)[C@H](C)N(C)C(=O)[C@H](CC(C)C)NC(=O)[C@H](C)N(C)C(=O)[C@H]2CCCN2C1=O [LB05, O=C(N(C)[C@H](C(OCC)=O)CSCC(N[C@H](C1=O)CC(C)C)=O)[C@H](CC(C)C)NC([C@H](C)N(C)C([C@H](CC(C)C)NC([C@H](C)N(C)C([C@@H]2N(C([C@H](CCC)NC(CN1CC)=O)=O)CCC2)=O)=O)=O)=O] ({CH2CO}-L[NEtG][Nva][dP][NMeA]L[NMeA]L[NMeC]-OEt; thioether N-9) | 50.3 | 2.57 | 
CCCN1CC(=O)N[C@@H](CC(C)C)C(=O)N2CCC[C@@H]2C(=O)N(C)[C@@H](C)C(=O)N[C@@H](CC(C)C)C(=O)N(C)[C@@H](C)C(=O)N[C@@H](CC(C)C)C(=O)N(C)[C@H](C(=O)OCC)CSCC(=O)N[C@@H](CC(C)C)C1=O [LB08, O=C(N(C)[C@H](C(OCC)=O)CSCC(N[C@H](C1=O)CC(C)C)=O)[C@H](CC(C)C)NC([C@H](C)N(C)C([C@H](CC(C)C)NC([C@H](C)N(C)C([C@@H]2N(C([C@H](CC(C)C)NC(CN1CCC)=O)=O)CCC2)=O)=O)=O)=O] ({CH2CO}-L[NPrGly]L[dP][NMeA]L[NMeA]L[NMeC]-OEt; thioether N-9) | 13.3 | 2.29 | 
CCC[C@@H]1NC(=O)CN(CCC)C(=O)[C@H](CC(C)C)NC(=O)CSC[C@@H](C(=O)OCC)N(C)C(=O)[C@H](CC(C)C)NC(=O)[C@H](C)N(C)C(=O)[C@H](CC2CCCCC2)NC(=O)[C@H](C)N(C)C(=O)[C@H]2CCCN2C1=O [LB11, O=C(N(C)[C@H](C(OCC)=O)CSCC(N[C@H](C1=O)CC(C)C)=O)[C@H](CC(C)C)NC([C@H](C)N(C)C([C@H](CC2CCCCC2)NC([C@H](C)N(C)C([C@@H]3N(C([C@H](CCC)NC(CN1CCC)=O)=O)CCC3)=O)=O)=O)=O] ({CH2CO}-L[NPrGly][Nva][dP][NMeA][Cha][NMeA]L[NMeC]-OEt; thioether N-9) | 6.2 | 0.619 | Papp at 10 µM (in vitro [2]; pH 7.4, log(Pe)_avg): 0.551 ×10⁻⁶ cm/s
CCCN1CC(=O)N[C@@H](CC(C)C)C(=O)N2CCC[C@@H]2C(=O)N(C)[C@@H](C)C(=O)N[C@@H](CC2CCCCC2)C(=O)N(C)[C@@H](C)C(=O)N[C@@H](CC(C)C)C(=O)N(C)[C@H](C(=O)OCC)CSCC(=O)N[C@@H](CC(C)C)C1=O [LB12, O=C(N(C)[C@H](C(OCC)=O)CSCC(N[C@H](C1=O)CC(C)C)=O)[C@H](CC(C)C)NC([C@H](C)N(C)C([C@H](CC2CCCCC2)NC([C@H](C)N(C)C([C@@H]3N(C([C@H](CC(C)C)NC(CN1CCC)=O)=O)CCC3)=O)=O)=O)=O] ({CH2CO}-L[NPrGly]L[dP][NMeA][Cha][NMeA]L[NMeC]-OEt; thioether N-9) | 6.0 | 0.072 | Papp at 10 µM (in vitro [2]; pH 7.4, log(Pe)_avg): 0.0593 ×10⁻⁶ cm/s
CCOC(=O)[C@@H]1CSCC(=O)N[C@@H](CC(C)C)C(=O)N(C)[C@@H](C)C(=O)N[C@@H](CC(C)C)C(=O)N2CCC[C@@H]2C(=O)N(C)[C@@H](CC)C(=O)N[C@@H](CC)C(=O)N(C)[C@@H](C)C(=O)N[C@@H](CC(C)C)C(=O)N1C [LC02, O=C(N(C)[C@H](C(OCC)=O)CSCC(N[C@H](C(N(C)[C@@H](C)C(N[C@@H](CC(C)C)C(N1[C@H](CCC1)C(N(C)[C@@H](CC)C(N[C@H]2CC)=O)=O)=O)=O)=O)CC(C)C)=O)[C@H](CC(C)C)NC([C@H](C)N(C)C2=O)=O] ({CH2CO}-L[NMeA]L[dP][NMeAbu][Abu][NMeA]L[NMeC]-OEt; thioether N-9) | 19.3 |  | Papp A→B at 3 h, 10 µM (in vitro [3]): 7.4 ×10⁻⁶ cm/s; Papp at 3 h, 10 µM (in vitro [3]): 7.4 ×10⁻⁶ cm/s; Papp at 10 µM (in vitro [2]; pH 7.4, Permeability (Papp) PAMPA (mixture)): 5 ×10⁻⁶ cm/s
CCC[C@@H]1NC(=O)[C@H](C)N(C)C(=O)[C@H](CC(C)C)NC(=O)CSC[C@@H](C(=O)OCC)N(C)C(=O)[C@H](CC(C)C)NC(=O)[C@H](C)N(C)C(=O)[C@H](CC)NC(=O)[C@H](CCC)N(C)C(=O)[C@H]2CCCN2C1=O [LC03, O=C(N(C)[C@H](C(OCC)=O)CSCC(N[C@H](C(N(C)[C@@H](C)C(N[C@@H](CCC)C(N1[C@H](CCC1)C(N(C)[C@@H](CCC)C(N[C@H]2CC)=O)=O)=O)=O)=O)CC(C)C)=O)[C@H](CC(C)C)NC([C@H](C)N(C)C2=O)=O] ({CH2CO}-L[NMeA][Nva][dP][NMeNva][Abu][NMeA]L[NMeC]-OEt; thioether N-9) | 20.3 |  | 
CCC[C@@H]1NC(=O)[C@H](C)N(C)C(=O)[C@H](CC(C)C)NC(=O)CSC[C@@H](C(=O)OCC)N(C)C(=O)[C@H](CC(C)C)NC(=O)[C@H](C)N(C)C(=O)[C@H](CC(C)C)NC(=O)[C@H](CC)N(C)C(=O)[C@H]2CCCN2C1=O [LC05, O=C(N(C)[C@H](C(OCC)=O)CSCC(N[C@H](C(N(C)[C@@H](C)C(N[C@@H](CCC)C(N1[C@H](CCC1)C(N(C)[C@@H](CC)C(N[C@H]2CC(C)C)=O)=O)=O)=O)=O)CC(C)C)=O)[C@H](CC(C)C)NC([C@H](C)N(C)C2=O)=O] ({CH2CO}-L[NMeA][Nva][dP][NMeAbu]L[NMeA]L[NMeC]-OEt; thioether N-9) | 7.6 |  | 
CCOC(=O)[C@@H]1CSCC(=O)N[C@@H](CC(C)C)C(=O)N(C)[C@@H](C)C(=O)N[C@@H](CC(C)C)C(=O)N2CCC[C@@H]2C(=O)N(C)[C@@H](CC)C(=O)N[C@@H](CC(C)C)C(=O)N(C)[C@@H](C)C(=O)N[C@@H](CC(C)C)C(=O)N1C [LC06, O=C(N(C)[C@H](C(OCC)=O)CSCC(N[C@H](C(N(C)[C@@H](C)C(N[C@@H](CC(C)C)C(N1[C@H](CCC1)C(N(C)[C@@H](CC)C(N[C@H]2CC(C)C)=O)=O)=O)=O)=O)CC(C)C)=O)[C@H](CC(C)C)NC([C@H](C)N(C)C2=O)=O] ({CH2CO}-L[NMeA]L[dP][NMeAbu]L[NMeA]L[NMeC]-OEt; thioether N-9) | 4.6 |  | 
CCC[C@H]1C(=O)N[C@@H](CC(C)C)C(=O)N(C)[C@@H](C)C(=O)N[C@@H](CC(C)C)C(=O)N(C)[C@H](C(=O)OCC)CSCC(=O)N[C@@H](CC(C)C)C(=O)N(C)[C@@H](C)C(=O)N[C@@H](CC(C)C)C(=O)N2CCC[C@@H]2C(=O)N1C [LC08, O=C(N(C)[C@H](C(OCC)=O)CSCC(N[C@H](C(N(C)[C@@H](C)C(N[C@@H](CC(C)C)C(N1[C@H](CCC1)C(N(C)[C@@H](CCC)C(N[C@H]2CC(C)C)=O)=O)=O)=O)=O)CC(C)C)=O)[C@H](CC(C)C)NC([C@H](C)N(C)C2=O)=O] ({CH2CO}-L[NMeA]L[dP][NMeNva]L[NMeA]L[NMeC]-OEt; thioether N-9) | 4.6 |  | 
CCOC(=O)[C@@H]1CSCC(=O)N[C@@H](CC(C)C)C(=O)N(C)[C@@H](C)C(=O)N[C@@H](CC(C)C)C(=O)N2CCC[C@@H]2C(=O)N(C)[C@@H](CC)C(=O)N[C@@H](CC2CCCCC2)C(=O)N(C)[C@@H](C)C(=O)N[C@@H](CC(C)C)C(=O)N1C [LC10, O=C(N(C)[C@H](C(OCC)=O)CSCC(N[C@H](C(N(C)[C@@H](C)C(N[C@@H](CC(C)C)C(N1[C@H](CCC1)C(N(C)[C@@H](CC)C(N[C@H]2CC3CCCCC3)=O)=O)=O)=O)=O)CC(C)C)=O)[C@H](CC(C)C)NC([C@H](C)N(C)C2=O)=O] ({CH2CO}-L[NMeA]L[dP][NMeAbu][Cha][NMeA]L[NMeC]-OEt; thioether N-9) | 10.5 |  | 
CCC[C@@H]1NC(=O)[C@H](C)N(C)C(=O)[C@H](CC(C)C)NC(=O)CSC[C@@H](C(=O)OCC)N(C)C(=O)[C@H](CC(C)C)NC(=O)[C@H](C)N(C)C(=O)[C@H](CC2CCCCC2)NC(=O)[C@H](CCC)N(C)C(=O)[C@H]2CCCN2C1=O [LC11, O=C(N(C)[C@H](C(OCC)=O)CSCC(N[C@H](C(N(C)[C@@H](C)C(N[C@@H](CCC)C(N1[C@H](CCC1)C(N(C)[C@@H](CCC)C(N[C@H]2CC3CCCCC3)=O)=O)=O)=O)=O)CC(C)C)=O)[C@H](CC(C)C)NC([C@H](C)N(C)C2=O)=O] ({CH2CO}-L[NMeA][Nva][dP][NMeNva][Cha][NMeA]L[NMeC]-OEt; thioether N-9) | 7.4 |  | 
CCC[C@H]1C(=O)N[C@@H](CC2CCCCC2)C(=O)N(C)[C@@H](C)C(=O)N[C@@H](CC(C)C)C(=O)N(C)[C@H](C(=O)OCC)CSCC(=O)N[C@@H](CC(C)C)C(=O)N(C)[C@@H](C)C(=O)N[C@@H](CC(C)C)C(=O)N2CCC[C@@H]2C(=O)N1C [LC12, O=C(N(C)[C@H](C(OCC)=O)CSCC(N[C@H](C(N(C)[C@@H](C)C(N[C@@H](CC(C)C)C(N1[C@H](CCC1)C(N(C)[C@@H](CCC)C(N[C@H]2CC3CCCCC3)=O)=O)=O)=O)=O)CC(C)C)=O)[C@H](CC(C)C)NC([C@H](C)N(C)C2=O)=O] ({CH2CO}-L[NMeA]L[dP][NMeNva][Cha][NMeA]L[NMeC]-OEt; thioether N-9) | 12.7 |  | Pe_avg [1]: 0 ×10⁻⁶ cm/s

Source: publication PMC10885153, “Membrane Permeability in a Large Macrocyclic Peptide Driven by a Saddle-Shaped Conformation” (Journal of the American Chemical Society, 2024)
